From US8088806B2 (Achillion Pharmaceuticals, Inc., priority 2005, dated 2012)

tested on: HCV replicon; assay: Replicon based assay of HCV replication inhibition (NPT ELISA); type: cell-based, Hepatitis C virus; conditions: Hepatitis C virus, Huh-7, 72 h, Table III; Huh-7 HCV replicon-containing cells, three days; read-out: Activity
Procedure, shortened: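 NPT (neomycin phosphotransferase) content, proportional to replicon replication, quantified by capture ELISA on day four. Before that, replicon-bearing Huh-7 cells in G418-free screening medium were exposed three days at 37° C to compound, typically six doses from 10 to 0.03 micromolar, with equal DMSO across wells.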

**Q.** With `Fc1cc(Nc2nc(-c3ccc(-n4ccnc4)cc3)cs2)ccc1OCC1CCCCC1` [compound 719, 4-(4-(1H-imidazol-1-yl)phenyl)-N-(4-(cyclohexylmethoxy)-3-fluorophenyl)thiazol-2-amine] as the compound, how does the EC50 read?
**A.** The EC50 was less than 1000 nM.

same assay, conditions: Hepatitis C virus, replicon based assay of HCV replication inhibition; Table IV; read-out: Activity

**Q.** `COc1ncc(-c2csc(Nc3ccc(OCC4CCCCC4)c(F)c3)n2)cn1` [compound 720, N-(4-(cyclohexylmethoxy)-3-fluorophenyl)-4-(2-methoxypyrimidin-5-yl)thiazol-2-amine] was tested. Which EC50 did it give?
**A.** Its EC50 is less than 1000 nM.

**Q.** How did the EC50 turn out when `Fc1cc(Nc2nc(-c3cccc4nsnc34)cs2)ccc1OCC1CCCCC1` [compound 722, 4-(benzo[c][1,2,5]thiadiazol-4-yl)-N-(4-(cyclohexylmethoxy)-3-fluorophenyl)thiazol-2-amine] was run?
**A.** Its EC50 is 1000 to 10000 nM.

**Q.** Which EC50 does the source give for `O=c1[nH]c2ccc(-c3csc(Nc4ccc(OCC5CCCCC5)c(F)c4)n3)cc2c(=O)o1` [compound 723, 6-(2-(4-(cyclohexylmethoxy)-3-fluorophenylamino)thiazol-4-yl)-1H-benzo[d][1,3]oxazine-2,4-dione] here?
**A.** The EC50 was 1000 to 10000 nM.

**Q.** With `OCCc1ccc(-c2csc(Nc3ccc(OCC4CCCCC4)c(F)c3)n2)cc1` [compound 724, 2-(4-(2-(4-(cyclohexylmethoxy)-3-fluorophenylamino)thiazol-4-yl)phenyl)ethanol] as the compound, how does the EC50 read?
**A.** Its EC50 is 1000 to 10000 nM.

**Q.** `NC(=O)c1sccc1-c1csc(Nc2ccc(OCC3CCCCC3)c(F)c2)n1` [compound 725, 3-(2-(4-(cyclohexylmethoxy)-3-fluorophenylamino)thiazol-4-yl)thiophene-2-carboxamide] was tested. Which EC50 did it give?
**A.** Its EC50 is less than 1000 nM.

**Q.** With `Fc1cc(Nc2nc(-c3ccc(-c4csnn4)cc3)cs2)ccc1OCC1CCCCC1` [compound 726, 4-(4-(1,2,3-thiadiazol-4-yl)phenyl)-N-(4-(cyclohexylmethoxy)-3-fluorophenyl)thiazol-2-amine] as the compound, how does the EC50 read?
**A.** The EC50 was 1000 to 10000 nM.

**Q.** With `O=C1CSc2cc(-c3csc(Nc4ccc(OCC5CCCCC5)c(F)c4)n3)ccc2N1` [compound 727, 7-(2-(4-(cyclohexylmethoxy)-3-fluorophenylamino)thiazol-4-yl)-2H-benzo[b][1,4]thiazin-3(4H)-one] as the compound, how does the EC50 read?
**A.** Its EC50 is 1000 to 10000 nM.

**Q.** How did the EC50 turn out when `N#Cc1cncc(-c2csc(Nc3ccc(OCC4CCCCC4)c(F)c3)n2)c1` [compound 728, 5-(2-(4-(cyclohexylmethoxy)-3-fluorophenylamino)thiazol-4-yl)pyridine-3-carbonitrile] was run?
**A.** Its EC50 is less than 1000 nM.

**Q.** `N#Cc1sccc1-c1csc(Nc2ccc(OCC3CCCCC3)c(F)c2)n1` [compound 729, 3-(2-(4-(cyclohexylmethoxy)-3-fluorophenylamino)thiazol-4-yl)thiophene-2-carbonitrile] was tested. Which EC50 did it give?
**A.** The EC50 was less than 1000 nM.

**Q.** Which EC50 does the source give for `CCCCCCCCOc1ccc(Nc2nc(-c3cccc(C(=O)OCC)n3)cs2)cc1C(F)(F)F` [compound 730, ethyl 6-(2-(3-(trifluoromethyl)-4-(octyloxy)phenylamino)thiazol-4-yl)pyridine-2-carboxylate] here?
**A.** The EC50 was less than 1000 nM.

**Q.** `CCCCCCCCOc1ccc(Nc2nc(-c3nc(C(=O)OCC)cs3)cs2)cc1C(F)(F)F` [compound 731, ethyl 2-(2-(3-(trifluoromethyl)-4-(octyloxy)phenylamino)thiazol-4-yl)thiazole-4-carboxylate] was tested. Which EC50 did it give?
**A.** The EC50 was less than 1000 nM.

**Q.** How did the EC50 turn out when `CCCCCCCCOc1ccc(Nc2nc(-c3ncc(C(=O)OCC)s3)cs2)cc1C(F)(F)F` [compound 732, ethyl 2-(2-(3-(trifluoromethyl)-4-(octyloxy)phenylamino)thiazol-4-yl)thiazole-5-carboxylate] was run?
**A.** The EC50 was less than 1000 nM.

**Q.** With `CCCCCCCCOc1ccc(Nc2nc(-c3ccc(O)nc3)cs2)cc1C(F)(F)F` [compound 733, 5-(2-(3-(trifluoromethyl)-4-(octyloxy)phenylamino)thiazol-4-yl)pyridin-2-ol] as the compound, how does the EC50 read?
**A.** The EC50 was less than 1000 nM.

**Q.** For `CCCCCCCCOc1ccc(Nc2nc(-c3ccc(OC)nc3)cs2)cc1C(F)(F)F` [compound 734, N-(3-(trifluoromethyl)-4-(octyloxy)phenyl)-4-(6-methoxypyridin-3-yl)thiazol-2-amine], which EC50 is on record?
**A.** Its EC50 is less than 1000 nM.

**Q.** For `CN(C)c1ccc(-c2csc(Nc3ccc(OC4CCCC4)c(C(F)(F)F)c3)n2)cn1` [compound 735, 5-(2-(4-(cyclopentyloxy)-3-(trifluoromethyl)phenylamino)thiazol-4-yl)-N,N-dimethylpyridin-2-amine], which EC50 is on record?
**A.** Its EC50 is 1000 to 10000 nM.
